Source: ChEMBL document CHEMBL3271983, “Potential antitumor agents. 26. Anionic congeners of the 9-anilinoacridines” (J Med Chem, 1978)

experiment: physchem
Description: Dissociation constant, basic pKa of the compound by UV spectrophotometry

pKa	Structure (SMILES)
7.64	O=S(=O)(O)Cc1ccc(Nc2c3ccccc3nc3ccccc23)cc1
8.19	O=C(O)COc1ccc(Nc2c3ccccc3nc3ccccc23)cc1
7.77	O=S(=O)(O)CCc1ccc(Nc2c3ccccc3nc3ccccc23)cc1
7.62	O=C(O)c1cccc(Nc2c3ccccc3nc3ccccc23)c1
7.17	O=C(O)c1ccc(Nc2c3ccccc3nc3ccccc23)cc1
7.17	O=C(O)/C=C/c1ccc(Nc2c3ccccc3nc3ccccc23)cc1
7.63	NC(=O)CCc1ccc(Nc2c3ccccc3nc3ccccc23)cc1
7.91	O=C(O)CCc1ccc(Nc2c3ccccc3nc3ccccc23)cc1
6.85	CS(=O)(=O)Nc1cccc(Nc2c3ccccc3nc3ccccc23)c1
7.15	Cc1cccc2c(Nc3ccc(NS(C)(=O)=O)cc3)c3ccccc3nc12
6.47	NC(=O)c1ccc(Nc2c3ccccc3nc3ccccc23)cc1
6.11	NS(=O)(=O)c1ccc(Nc2c3ccccc3nc3ccccc23)cc1
5.58	O=[N+]([O-])c1ccc(Nc2c3ccccc3nc3ccccc23)cc1
7.92	O=C(O)Cc1ccc(Nc2c3ccccc3nc3ccccc23)cc1
7.42	CC(=O)Nc1ccc2c(Nc3ccc(C(=O)O)cc3)c3ccccc3nc2c1
7.43	NC(=O)Cc1ccc(Nc2c3ccccc3nc3ccccc23)cc1
7.05	NS(=O)(=O)Cc1ccc(Nc2c3ccccc3nc3ccccc23)cc1
6.87	O=S(=O)(O)c1ccc(Nc2c3ccccc3nc3ccccc23)cc1
5.93	N#Cc1ccc(Cc2c3ccccc3nc3ccccc23)cc1
7.41	COc1cc(C(=O)O)ccc1Nc1c2ccccc2nc2ccccc12
8.9	Nc1ccc2c(Nc3ccc(C(=O)O)cc3)c3ccccc3nc2c1
7	CS(=O)(=O)Nc1ccc(Nc2cc(N=[N+]=[N-])nc3ccccc23)cc1
6.12	CS(=O)(=O)Nc1ccc(Nc2c3ccccc3nc3c(C(N)=O)cccc23)cc1
7.28	O=C(O)c1ccccc1Nc1c2ccccc2nc2ccccc12

pKa	Structure (SMILES)
7.82	O=C(O)Cc1cccc(Nc2c3ccccc3nc3ccccc23)c1
8.12	O=C(O)Cc1ccccc1Nc1c2ccccc2nc2ccccc12
7.43	NS(=O)(=O)CCc1ccc(Nc2c3ccccc3nc3ccccc23)cc1
6.12	CC(=O)c1ccc(Cc2c3ccccc3nc3ccccc23)cc1
7	Brc1ccc(Cc2c3ccccc3nc3ccccc23)cc1
7.06	Clc1ccc(Cc2c3ccccc3nc3ccccc23)cc1
7.09	O=S(=O)(Nc1ccc(Cc2c3ccccc3nc3ccccc23)cc1)c1ccccc1
7.46	c1ccc(Cc2c3ccccc3nc3ccccc23)cc1
7.51	CC(=O)Nc1ccc(Cc2c3ccccc3nc3ccccc23)cc1
7.64	COC(=O)Nc1ccc(Cc2c3ccccc3nc3ccccc23)cc1
7.72	Cc1ccc(Cc2c3ccccc3nc3ccccc23)cc1
7.77	CNC(=O)Nc1ccc(Cc2c3ccccc3nc3ccccc23)cc1
7.94	COc1ccc(Cc2c3ccccc3nc3ccccc23)cc1
8.36	Nc1ccc(Cc2c3ccccc3nc3ccccc23)cc1
5.72	COc1cc(NS(C)(=O)=O)ccc1Cc1c2ccccc2nc2cc([N+](=O)[O-])ccc12
3.82	COc1cc(NS(C)(=O)=O)ccc1Cc1c2ccc([N+](=O)[O-])cc2nc2cc([N+](=O)[O-])ccc12
5.53	COc1cc(NS(C)(=O)=O)ccc1Cc1c2c(nc3ccccc13)CC(=N)C=C2
6.09	COc1cc(NS(C)(=O)=O)ccc1Cc1c2c(nc3ccccc13)C(=N)CC=C2
6.52	CS(=O)(=O)Nc1ccc(Nc2c3ccccc3nc3cc(I)ccc23)cc1
6.21	COC(=O)c1ccc(Nc2c3ccccc3nc3ccccc23)cc1
6.95	CN(c1ccc(Nc2c3ccccc3nc3ccccc23)cc1)S(C)(=O)=O
7.34	CC(=O)Nc1ccc2c(Nc3ccc(NS(C)(=O)=O)cc3)c3ccccc3nc2c1
7.43	COc1cc(NS(C)(=O)=O)ccc1Nc1c2ccccc2nc2ccccc12 [AMSACRINE]

experiment: physchem; remark: another data set of the same source
Description: Dissociation constant, acidic pKa of the compound by UV spectrophotometry

pKa	Structure (SMILES)
4.2	O=C(O)c1ccc(Nc2c3ccccc3nc3ccccc23)cc1
